Measurements as given in patent publication US6664372B1, “Azatide peptidomimetics” (The Scripps Research Institute, priority 1996, dated 2003).
Starred links: 1 amine or outer side, 2 acyl side, 3 side chain; linkers in the order of their positions; H or OH if unused. Non-standard residues stand in square brackets, D forms with d. No end group written: not given here. azaTyr = O=C(N(Cc1ccc(O)cc1)N[*:1])[*:2]; azaPhe = O=C(N(Cc1ccccc1)N[*:1])[*:2]; azaLeu = CC(C)CN(N[*:1])C(=O)[*:2]; azaGly = NNC(=O)O

Tested on: anti-β-endorphin monoclonal antibody 3-E7 (IgG 3-E7)
Assay: Azatide (16) competition ELISA for anti-β-endorphin monoclonal antibody
Format: binding, mouse
Settings: at 1 mM, plate coated with Tyr-Gly-Gly-Phe-Leu-BSA conjugate

Tyr^a-Gly^a-Gly^a-Phe^a-Leu^a.2CP3COOH ([azaTyr][azaGly][azaGly][azaPhe][azaLeu]; also: salt/adduct .2CP3COOH) [compound 16, Leu-enkephalin azatide mimetic; every α-carbon replaced by nitrogen]
competition with the natural peptide for 3-E7 (competition ELISA): non-ligand | competition with the natural peptide for 3-E7 (competition ELISA) (listed as azatide pentamer): no propensity to compete
